Where “and” joins values, the source holds several entries; their conditions need not be identical. Identical values can stand only once.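 48-hour exposure; five concentrations; linearly interpolated endpoints. Here, GI50 denotes the concentration required for 50% inhibition of growth. The concentration for full growth arrest is given as TGI.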
Key:
Assay in all cases: DTP human tumour cell line panel, 48 h
EKVX NSCLC = test system: EKVX NSCLC
UO-31 renal = test system: UO-31 renal
RXF 393 renal = test system: RXF 393 renal
KM12 colon = test system: KM12 colon
M14 melanoma = test system: M14 melanoma
MOLT-4 leukemia = test system: MOLT-4 leukemia
MALME-3M melanoma = test system: MALME-3M melanoma
UACC-62 melanoma = test system: UACC-62 melanoma
UACC-257 melanoma = test system: UACC-257 melanoma
DU-145 prostate = test system: DU-145 prostate

Row | Compound | TGI (EKVX NSCLC) [µM] | TGI (UO-31 renal) [µM] | TGI (RXF 393 renal) [µM] | TGI (KM12 colon) | TGI (M14 melanoma) [µM] | TGI (MOLT-4 leukemia) [µM] | TGI (MALME-3M melanoma) [µM] | TGI (UACC-62 melanoma) [µM] | TGI (UACC-257 melanoma) | TGI (DU-145 prostate) | GI50 (EKVX NSCLC) | GI50 (UO-31 renal) | GI50 (KM12 colon) | GI50 (M14 melanoma) | GI50 (MOLT-4 leukemia) | GI50 (MALME-3M melanoma) | GI50 (DU-145 prostate) | GI50 (UACC-62 melanoma) | GI50 (UACC-257 melanoma) | GI50 (RXF 393 renal) [µM]
1 | Cc1cc([N+](=O)[O-])c(S(=O)(=O)c2ccccc2)c([N+](=O)[O-])c1 | > 72.5 | 31 | 4.8 | 32.1 µM | 17.6 | > 28.9 | 27.9 | > 44.3 | 5.16 µM | – | – | – | – | – | – | – | – | – | – | –
2 | COc1cc(O)c(C(C)=O)c(O)c1 | > 100 | > 100 | > 100 | > 100 µM | > 100 | – | > 100 | > 100 | > 100 µM | > 100 µM | – | – | – | – | – | – | – | – | – | –
3 | CCCCCCCCCCCCCCCCS(=O)(=O)c1ccc(NN)cc1 | > 10 | – | > 10 | > 10 µM | > 10 | > 10 | > 10 | > 10 | > 10 µM | > 10 µM | – | – | – | – | – | – | – | – | – | –
4 | CC(=O)Oc1ccc(C2(c3ccc(OC(C)=O)cc3)C(=O)Nc3ccccc32)cc1 | > 100 | > 100 | – | > 62.7 µM and 51.7 µM | > 100 | > 100 | > 100 | > 100 | 79.4 µM and > 100 µM | > 70.4 µM and 95.3 µM | 8.49 µM and 22.4 µM | 24 µM and 27.5 µM | 12.7 µM and 12.6 µM | 34.4 µM and 38.2 µM | 16.3 µM and 28.3 µM | 64.5 µM and > 100 µM | 24.4 µM and 28.7 µM | 34.8 µM and 43.5 µM | 24.1 µM and 28.2 µM | –
5 | NS(=O)(=O)c1ccc(NC(=O)c2cccn3c(=O)c4ccccc4nc23)cc1 | > 100 | > 100 | > 100 | > 100 µM | > 100 | > 100 | > 100 | > 100 | > 100 µM | – | – | – | – | – | – | – | – | – | – | –
6 | C/C(=N\n1c(N)c(C#N)c(-c2ccc(Cl)cc2)c(C#N)c1=O)c1ccncc1 | > 100 | > 100 | – | – | > 100 | > 100 | > 100 | > 100 | 95.3 µM | 44.7 µM | 6.13 µM | 7.33 µM | – | > 100 µM | > 100 µM | 7.54 µM | 11.1 µM | 36.4 µM | 13.5 µM | –
7 | O=c1oc2ccc(F)cc2c(=O)n1-c1ccc(Br)cc1F | 9.74 | 1.7 | 4.66 | 6.16 µM | 5.08 | – | 2.03 | 1.16 | 7.37 µM | 22.8 µM | 1.85 µM | 0.194 µM | 2.23 µM | 0.434 µM | – | 0.317 µM | 0.781 µM | 0.284 µM | 0.528 µM | 0.923
8 | C=CC1=CC(C)C[C@]1(O)C(=O)OC (stereo partly specified) | – | – | – | – | – | – | – | – | – | – | > 100 µM | > 100 µM | > 100 µM | > 100 µM | > 100 µM | > 100 µM | – | > 100 µM | > 100 µM | > 100
9 | COC(=O)c1cc2c3c(ccc2[nH]1)N(C(=O)c1cc2c4c(ccc2[nH]1)N(C(=O)c1cc2c5c(ccc2[nH]1)N(C(N)=O)CC5)CC4)CC3 | > 100 | 8.47 | 12.5 | > 100 µM | > 21.3 | > 100 | > 24.2 | > 19.8 | > 100 µM | – | – | – | – | – | – | – | – | – | – | –
